Results as given in the Deep4Chem optical property database.

Experiment: solvent given as SMILES

Question: Which emission maximum (in C1CCCCC1) does the source give for `CC(C)[Si]1(C(C)C)c2cc(C=C(C#N)C#N)ccc2-c2ccc(N(C)C)cc21` here?
Answer: 509 nm

Question: What about the emission maximum (in CC#N) of the same molecule?
Answer: 694 nm

Question: And the emission maximum (in CCO)?
Answer: 691 nm

Question: And the emission maximum (in CCOCC)?
Answer: 584 nm

Question: What about the emission maximum (in CS(C)=O) of the same molecule?
Answer: 714 nm

Question: And the emission maximum (in ClCCl)?
Answer: 644 nm

Question: And the emission maximum (in c1ccccc1)?
Answer: 566 nm

Question: What does the source list for `O=C1C=Cc2cc3ccccc3c(=O)n21`?
Answer: emission maximum (in CC#N): 410 nm; emission maximum (in CO): 450 nm; emission maximum (in CS(C)=O): 420 nm; emission maximum (in ClC(Cl)Cl): 410 nm

Question: For `Cc1ccc(C(=O)OCc2c(C)c(=O)n3c(=O)c(C)c(C)n23)cc1`, which emission maximum (in CCO) is on record?
Answer: 460 nm

Question: With `C#Cc1ccc2ccc3oc(=O)cc(C)c3c2c1` as the molecule, how does the emission maximum (in CCO) read?
Answer: 403 nm

Question: With `C(/C=C/c1cc2c3c(c1)CCCN3CCC2)=C\c1ccncc1` as the molecule, how does the emission maximum (in C1COCCO1) read?
Answer: 518 nm

Question: And the emission maximum (in CC#N)?
Answer: 569 nm

Question: What about the emission maximum (in CCCCCCC) of the same molecule?
Answer: 442 nm

Question: And the emission maximum (in CO)?
Answer: 583 nm

Question: Which emission maximum (in CCO) does the source give for `c1ccc2c(-c3cncnc3)c3ccccc3c(-c3cncnc3)c2c1` here?
Answer: 417 nm

Question: What about the emission maximum (in ClCCl) of the same molecule?
Answer: 417 nm

Question: Which results are given for `COc1cc(-c2cc(-c3ccc(C)cc3)nc3c(C#N)c(N4CCCC4)nc(N)c23)cc(OC)c1OC`?
Answer: emission maximum (in CC#N): 525 nm; emission maximum (in CC(C)=O): 521 nm; emission maximum (in CC(C)O): 513 nm; emission maximum (in CO): 526 nm; emission maximum (in ClC(Cl)Cl): 509 nm; emission maximum (in ClCCl): 515 nm; emission maximum (in c1ccccc1): 508 nm

Question: For `CC1=C(C)C(c2c(C)c(C)c3n2[B-](F)(F)[N+]2=C(C)C(C)=C(C)C2=C3)=[N+]2C1=Cc1c(C)c(C)c(C)n1[B-]2(F)F`, which emission maximum (in ClCCl) is on record?
Answer: 650 nm

Question: Which emission maximum (in C1CCOC1) does the source give for `CN1c2ccccc2C(O)(c2ccccc2)c2cc([N+](=O)[O-])ccc21` (centres undefined) here?
Answer: 501.3 nm

Question: And the emission maximum (in CC#N)?
Answer: 557 nm

Question: And the emission maximum (in CCO)?
Answer: 536.2 nm

Question: What about the emission maximum (in CO) of the same molecule?
Answer: 544.7 nm

Question: What about the emission maximum (in CS(C)=O) of the same molecule?
Answer: 566.8 nm

Question: What about the emission maximum (in Cc1ccccc1) of the same molecule?
Answer: 480.7 nm

Question: With `COc1ccc(-n2cccc2)cc1` as the molecule, how does the emission maximum (in CC#N) read?
Answer: 327 nm

Question: And the emission maximum (in CCCCCC)?
Answer: 324 nm

Question: For `CCCCN1C(=O)c2cccc3c(OC)ccc(c23)C1=O`, which emission maximum (in Cc1ccccc1) is on record?
Answer: 422 nm

Question: With `CCCCN1C(=O)c2cccc3c(C#CC#Cc4ccc5c6c(cccc46)C(=O)N(CCCC)C5=O)ccc(c23)C1=O` as the molecule, how does the emission maximum (in ClCCl) read?
Answer: 432 nm

Question: Which emission maximum (in CC#N) does the source give for `C[n+]1ccn(CCCCc2ccc3c(c2)c2ccccc2n3-c2cc(C#N)c(C#N)cc2F)c1` here?
Answer: 558 nm

Question: Which emission maximum (in O) does the source give for `NNC(=O)N1C(=O)c2cc(S(=O)(=O)[O-])cc3c(N)c(S(=O)(=O)[O-])cc(c23)C1=O` here?
Answer: 535 nm

Question: What does the source list for `c1ccc2c(c1)c1ccccc1n2-c1ccc(-c2ccc(-n3c4ccccc4c4ccccc43)nc2-n2c3ccccc3c3ccccc32)nn1`?
Answer: emission maximum (in CC#N): 464.96 nm; emission maximum (in Cc1ccccc1): 423 nm; emission maximum (in ClCCl): 432.68 nm

Question: For `Cc1ccc(N/C=C/C=[NH+]c2ccc(C)cc2)cc1`, which emission maximum (in CS(C)=O) is on record?
Answer: 491 nm

Question: With `C(=C\c1ccc(N(c2ccc(/C=C/c3ccc(N(c4ccccc4)c4ccccc4)cc3)cc2)c2ccc(-c3nc4ccccc4nc3-c3ccc(N(c4ccc(/C=C/c5ccc(N(c6ccccc6)c6ccccc6)cc5)cc4)c4ccc(/C=C/c5ccc(N(c6ccccc6)c6ccccc6)cc5)cc4)cc3)cc2)cc1)/c1ccc(N(c2ccccc2)c2ccccc2)cc1` as the molecule, how does the emission maximum (in C1CCOC1) read?
Answer: 532 nm

Question: What about the emission maximum (in Cc1ccccc1) of the same molecule?
Answer: 521 nm

Question: For `c1ccc(N(c2ccccc2)c2ccc(-c3ncc(-c4ccc(-c5cnc(-c6ccc(N(c7ccccc7)c7ccccc7)cc6)s5)s4)s3)cc2)cc1`, which emission maximum (in CO) is on record?
Answer: 503 nm

Question: With `F[B-]1(F)OC(c2cccc(Br)c2)=Cc2ccc3ccccc3[n+]21` as the molecule, how does the emission maximum (in ClC(Cl)Cl) read?
Answer: 435 nm

Question: With `F[B-]1(F)Oc2ccccc2-c2nc(-c3ccccc3)c3cc(Cl)ccc3[n+]21` as the molecule, how does the emission maximum (in Cc1ccccc1) read?
Answer: 542 nm

Question: Which emission maximum (in ClC(Cl)Cl) does the source give for `CCCC1(CCC)c2cc(C=C(C#Cc3ccccc3)C#Cc3ccccc3)ccc2-c2ccc(C=C(C#Cc3ccccc3)C#Cc3ccccc3)cc21` here?
Answer: 473 nm

Question: Which emission maximum (in C1CCOC1) does the source give for `CCCCCCCCCCn1c(-c2cc(-c3nc4ccccc4n3CCCCCCCCCC)cc(-c3nc4ccccc4n3CCCCCCCCCC)c2)nc2ccccc21` here?
Answer: 360.5 nm

Question: For `C1=C/C2=C(\c3ccccc3)c3c[nH]c(c3)/C(c3ccccc3)=C3/C=CC(=N3)/C(c3ccccc3)=c3/cc/c([nH]3)=C(\c3ccccc3)C1=N2`, which emission maximum (in CC(=O)N(C)C) is on record?
Answer: 713 nm

Question: Which results are given for `Cc1cc(-c2nnc(-c3c(C(C)C)cc(C(C)C)cc3C(C)C)o2)ccc1-n1c2ccccc2c2ccccc21`?
Answer: emission maximum (in CCO): 440 nm; emission maximum (in Cc1ccccc1): 375 nm

Question: With `N#Cc1cc2sccc2c2c1ccc1ccccc12` as the molecule, how does the emission maximum (in ClC(Cl)Cl) read?
Answer: 382 nm

Question: With `CCOC(=O)c1c(-c2c(Cl)c3ccccc3oc2=O)nn(-c2ccc(Br)cc2)c1C(=O)OCC` as the molecule, how does the emission maximum (in ClCCl) read?
Answer: 406 nm

Question: Which emission maximum (in Cc1ccccc1) does the source give for `CC1(C)c2ccccc2N(c2ccc3c(c2)c2cc(N4c5ccccc5C(C)(C)c5ccccc54)ccc2c2nc4ccccc4nc32)c2ccccc21` here?
Answer: 553 nm

Question: And the emission maximum (in c1cc(-c2cccc(-n3c4ccccc4c4ccccc43)c2)cc(-n2c3ccccc3c3ccccc32)c1)?
Answer: 565 nm

Question: For `O=[N+]([O-])c1ccc(/C=C/c2nc3c4ccccc4c4ccccc4c3o2)cc1`, which emission maximum (in CC#N) is on record?
Answer: 602 nm

Question: With `CC(C)Nc1cc2oc3cc(NC(C)C)c(F)cc3c(=O)c2cc1F` as the molecule, how does the emission maximum (in CCO) read?
Answer: 422 nm

Question: For `CN(C)c1ccc(C(=O)Nc2ccc(Cl)cc2)cc1`, which emission maximum (in C1CCCCC1) is on record?
Answer: 435 nm

Question: What about the emission maximum (in C1CCOC1) of the same molecule?
Answer: 490 nm

Question: What about the emission maximum (in CC#N) of the same molecule?
Answer: 498 nm

Question: What about the emission maximum (in CCOCC) of the same molecule?
Answer: 481 nm

Question: For `CNc1ccc(/C=C/C#N)cc1`, which emission maximum (in C1CCCCC1) is on record?
Answer: 368 nm

Question: What about the emission maximum (in C1CCOC1) of the same molecule?
Answer: 419 nm

Question: And the emission maximum (in C1COCCO1)?
Answer: 399 nm

Question: And the emission maximum (in CC1CCCCC1)?
Answer: 391 nm

Question: And the emission maximum (in CC#N)?
Answer: 421 nm

Question: And the emission maximum (in CC(C)O)?
Answer: 408 nm

Question: And the emission maximum (in CCO)?
Answer: 414 nm

Question: And the emission maximum (in CO)?
Answer: 423 nm

Question: And the emission maximum (in ClC(Cl)Cl)?
Answer: 404 nm

Question: What about the emission maximum (in O) of the same molecule?
Answer: 445 nm

Question: With `CCCCC(CC)COc1cc(OCC(CC)CCCC)c2c#cc3ccc4oc5ccc(c#cc6cc(c#cc7ccc8oc9ccc(c#cc1c2)cc9c8c7)c(C(CCCC)OCCC)cc6C(CCCC)OCCC)cc5c4c3` (centres undefined) as the molecule, how does the emission maximum (in ClCCl) read?
Answer: 377 nm

Question: For `COc1cc2cc(-c3cc4cc(OC)c(OC)cc4oc3=O)oc2cc1OC`, which emission maximum (in CC#N) is on record?
Answer: 493 nm

Question: What about the emission maximum (in CCOC(C)=O) of the same molecule?
Answer: 478 nm

Question: What about the emission maximum (in CS(C)=O) of the same molecule?
Answer: 500 nm

Question: What about the emission maximum (in Cc1ccccc1) of the same molecule?
Answer: 475 nm

Question: What about the emission maximum (in O) of the same molecule?
Answer: 435 nm

Question: With `CC1=[N+]2C(=C(C3=CC4OCCOCCOCCOCCOC4C=C3)c3c4ccccc4c(/C=C/c4ccc(N(C)C)cc4)n3[B-]2(F)F)c2ccccc21` (centres undefined) as the molecule, how does the emission maximum (in CC#N) read?
Answer: 741 nm

Question: For `c1ccc(-n2c3ccccc3c3ccccc32)cc1`, which emission maximum (in CCO) is on record?
Answer: 344 nm

Question: For `CCCCc1cc2cccc3cc(CCCC)c4cc(-c5cc6[b-]7c(c5)c(CCCC)cc5cccc(cc6CCCC)[n+]75)cc1[b-]4[n+]23`, which emission maximum (in C1CCCCC1) is on record?
Answer: 550 nm

Question: With `Cc1cc(-c2ccc(N(c3ccccc3)c3ccccc3)cc2)c2nsnc2c1-c1ccc(C(C)(C)C)cc1` as the molecule, how does the emission maximum (in ClCCl) read?
Answer: 575 nm

Question: Which results are given for `O=C1c2ccccc2-c2c(-c3ccccc3)c(-c3ccccc3)c(-c3ccccc3)c3cccc1c23`?
Answer: emission maximum (in CC#N): 498 nm; emission maximum (in CO): 521 nm

Question: For `C[Si](C)(C)c1cccc2c(C#N)cccc12`, which emission maximum (in C1CCCCC1) is on record?
Answer: 333 nm

Question: Which emission maximum (in Cc1ccccc1) does the source give for `Cc1cc(-c2nc(-c3ccccc3)nc(-c3ccccc3)n2)ccc1N1c2ccccc2CCc2ccccc21` here?
Answer: 481.75 nm

Question: Which emission maximum (in C1CCOC1) does the source give for `CCOC(=O)C1=CN(c2ccccc2)C=CC1c1ccccc1` (centres undefined) here?
Answer: 419 nm

Question: And the emission maximum (in CO)?
Answer: 442 nm

Question: For `Cc1ccc(-c2cc(C)[o+]c(C)c2)cc1`, which emission maximum (in CC#N) is on record?
Answer: 435 nm

Question: And the emission maximum (in ClCCl)?
Answer: 417 nm

Question: For `CCB1c2ccccc2Nc2ccccc21`, which emission maximum (in ClCCl) is on record?
Answer: 494 nm

Question: For `Cc1cc(C)c(C)c(B(c2c(C)c(C)c(N3c4ccccc4Oc4ccccc43)c(C)c2C)c2c(C)c(C)c(N3c4ccccc4Oc4ccccc43)c(C)c2C)c1C`, which emission maximum (in CC(C)(C)c1ccc(-n2c3ccc([Si](c4ccccc4)(c4ccccc4)c4ccccc4)cc3c3cc([Si](c4ccccc4)(c4ccccc4)c4ccccc4)ccc32)cc1) is on record?
Answer: 484 nm

Question: With `COC(=O)c1[nH]c(-c2ccccc2)c2nnc3c4ccccc4oc3c12` as the molecule, how does the emission maximum (in ClCCl) read?
Answer: 473 nm
